Patent US8563027B2, “Drug delivery through hydrogel plugs” (Incept, LLC, priority 2009, dated 2013)
Values after ≈ are worked out from the molar mass of the structure shown. Where two headings read alike, the source gives them in different places.

Legend:
[1] = cited from earlier work
[2] = In vitro release of steroids entrapped in hydrogel compared to free drug in PBS; format: physicochemical; conditions: 9% 4a20KSG hydrogel, FIG. 20
Protocol: A 9% 4a20KSG hydrogel was prepared incorporating three different steroids (flunisolide, budesonide, and triamcinolone acetonide).

For `CC(C(=O)O)c1ccc(-c2ccccc2)c(F)c1` (stereo not shown) [Flurbiprofen], the Solubility [1] is given as 0.9 mg/mL (≈ 3680 µM).
For `Cc1ccc(Cl)c(Nc2ccccc2C(=O)[O-])c1Cl.[Na+]` [Meclofenamate sodium], the Solubility ([1]; pH 7.2) is given as <50 μg/mL @ pH 7.2 50 mg/mL @ pH 9.0 and the Solubility ([1]; pH 9.0) is given as <50 μg/mL @ pH 7.2 50 mg/mL @ pH 9.0.
For `COc1ccc2c(c1)c(CC(=O)O)c(C)n2C(=O)c1ccc(Cl)cc1` [Indomethacin], the Solubility ([1]; pH 7, Form I) is listed as 0.54 mg/mL (≈ 1510 µM) and the Solubility ([1]; pH 7, Form II) is listed as 0.80 mg/mL (≈ 2240 µM).
For `CC(C(=O)[O][Ca][O]C(=O)C(C)c1cccc(Oc2ccccc2)c1)c1cccc(Oc2ccccc2)c1` (stereo not shown) [Fenoprofen Calcium], the Solubility ([1]; in water) is given as “Slightly soluble in water”.
For `COc1c(N2C[C@@H]3CCCN[C@@H]3C2)c(F)cc2c(=O)c(C(=O)O)cn(C3CC3)c12` [Moxifloxacin], the “Solubility in aqueous solutions” value [1] is listed as “readily soluble”.
For `CC(C)Cc1ccc(C(C)C(=O)O)cc1` (stereo not shown) [Ibuprofen], the Solubility ([1]; pH 7) is given as 10 mg/ml @ pH 7.
For `Cc1ccc(-c2cc(C(F)(F)F)nn2-c2ccc(S(N)(=O)=O)cc2)cc1` [Celecoxib], the Solubility [1] is given as 0.005 mg/mL (≈ 13.1 µM).
In the case of `CC(C)OC(=O)CCC/C=C\C[C@@H]1[C@@H](CC[C@@H](O)CCc2ccccc2)[C@H](O)C[C@@H]1O` [Latanoprost], the “Solubility in aqueous solutions” value [1] is listed as “relatively low solubility”.
For `O=C(c1ccccc1)c1ccc2n1CCC2C(=O)O` (stereo not shown) [Ketorolac], the Solubility ([1]; in IPB) is listed as 10.5 mg/mL (≈ 41100 µM).
For `CC1(C)O[C@@H]2C[C@H]3[C@@H]4C[C@H](F)C5=CC(=O)C=C[C@]5(C)[C@H]4[C@@H](O)C[C@]3(C)[C@]2(C(=O)CO)O1` [flunisolide], the “Release profile in hydrogel compared to free drug in PBS” value [2] was “slower more sustained drug release profile”.
For `O=C(O)c1cc(-c2ccc(F)cc2F)ccc1O` [Diflunisal], the Solubility ([1]; pH 7) is listed as 3.43 mg/ml @ pH 7.
For `Cc1cccc(Nc2ccccc2C(=O)[O-])c1C.[Na+]` [Mefanamic Acid], the Solubility ([1]; pH 7.1) is given as 40 μg/ml @ pH 7.1.
For `CCc1cccc2c3c([nH]c12)C(CC)(CC(=O)O)OCC3` (stereo not shown) [Etodolac], the Solubility ([1]; in water) is listed as “Insoluble in water”.
For `NC(=O)Cc1cccc(C(=O)c2ccccc2)c1N` [Nepafenac], the Solubility [1] is listed as <1 mg/ml (The drug is available as 0.1% suspension).
